Results on 1 molecule are retold here after publication PMC10173194 (Journal of Advanced Research, 2022).

The target in the experiment is T1, PKCε (Homo sapiens, UniProt Q02156).
T1 sequence (Q02156 1-737): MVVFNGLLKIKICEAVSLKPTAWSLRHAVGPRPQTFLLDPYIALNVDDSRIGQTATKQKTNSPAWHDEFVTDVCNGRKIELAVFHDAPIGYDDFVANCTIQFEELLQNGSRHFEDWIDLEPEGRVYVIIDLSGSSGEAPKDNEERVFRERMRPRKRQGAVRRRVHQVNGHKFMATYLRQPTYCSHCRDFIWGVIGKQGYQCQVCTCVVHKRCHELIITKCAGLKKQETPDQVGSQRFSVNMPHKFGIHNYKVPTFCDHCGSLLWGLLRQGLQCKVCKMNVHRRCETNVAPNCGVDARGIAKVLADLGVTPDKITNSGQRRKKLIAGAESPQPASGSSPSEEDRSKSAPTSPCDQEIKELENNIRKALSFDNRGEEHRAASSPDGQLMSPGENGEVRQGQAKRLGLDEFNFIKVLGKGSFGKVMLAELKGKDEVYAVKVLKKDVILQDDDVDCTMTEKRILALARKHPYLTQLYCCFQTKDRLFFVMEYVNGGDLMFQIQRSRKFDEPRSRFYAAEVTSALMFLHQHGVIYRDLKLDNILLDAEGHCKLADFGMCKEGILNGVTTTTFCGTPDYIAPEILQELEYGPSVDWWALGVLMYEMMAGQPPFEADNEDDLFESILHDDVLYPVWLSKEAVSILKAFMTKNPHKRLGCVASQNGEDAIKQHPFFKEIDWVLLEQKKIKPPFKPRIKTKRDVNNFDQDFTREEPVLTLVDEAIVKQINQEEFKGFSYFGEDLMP
The experiment in a line: SPR. Type of experiment: binding.

One may read the Kd as the constant that tells how readily two partners part at equilibrium. Read a high Kd as weaker binding. Turning to `COc1cccc2c1C(=O)c1c(O)c3c(c(O)c1C2=O)C[C@@](O)(C(=O)CO)C[C@@H]3O[C@H]1C[C@H](N)[C@H](O)[C@H](C)O1` [Dox, Doxorubicin], the Kd was 44.8 µM.
